Data: US20230322861A1, “SYNTHETIC PEPTIDES FOR DISSOLVING TAU INCLUSIONS” (The Trustees of Princeton University, priority 2022, published 2023)

What was measured:
Format in all cases: cell-based
[1] = system: tau aggregate-containing cells (strain DS18); test: curing of tau aggregates in colonies of tau aggregate-containing cells expressing mCherry or SubF-mCherry; details: expressed for a week, passaged at low density, imaged after 7 days, 14 fields of view; representative field FIGS. 3A-3B
Protocol: FIGS. 3A-3B are images of representative fields of view of mCherry (3A) or SubF-mCherry (3B) in tau aggregate-containing cell colonies.
As an example of this, mCherry or SubF-mCherry were expressed in tau aggregate-containing cells (strain DS18) for a week. Cells were then passaged into a new dish at low density. After 7 days, 14 fields of view were imaged for each condition, and the fraction of colonies cured of tau aggregates was determined.

tau inclusions [2] = test: co-expression of fluorescent-tagged tau inclusions with mCherry-tagged synthetic peptide sequences; probability of cells containing a tau inclusion; details: at different concentrations of co-expressed peptide-mCherry fusion; FIGS. 2A-2K
Protocol: Various peptide sequences were tested by co-expressing fluorescent-tagged tau inclusions with mCherry-tagged synthetic peptide sequences, and quantifying a probability of cells containing a tau inclusion at different synthetic peptide concentrations.

tau inclusions [3] = test: as above; details: cells expressing peptide-mCherry fusion; FIGS. 2H, 2J, 2K

Sub F-mCherry: SubF sequence (KRKRR followed by 42 serines, SEQ ID NO. 3) fused to mCherry (KRKRRSSSSSSSSSSSSSSSSSSSSSSSSSSSSSSSSSSSSSSSSSS)
colonies with / cured of tau aggregates [1]: many of the 27 colonies lack aggregates in all cells

SubF Scramble (SSSRSSSSSKSSSSSSASSSSPSSASSSSSRSSSSPSSSSSSKSSSSSRSSS) [#9, 12, mCherry-tagged]
probability of cells containing a tau inclusion (tau inclusions [2]): no reduction in tau inclusions was seen

S52 (Pure Polyserine) [#8]
probability of cells containing a tau inclusion (tau inclusions [2]): no decrease in tau inclusions was seen | tau-negative aggregates (aggregates formed absent the presence of tau) (tau inclusions [3]): tau-negative aggregates were noted

CK2 (SDSDS) (ASSSDSDSSSSSSSSSSSSSSSSSSSSSSSSSSSSSSSSSSSSSSSSSSSSA) [#11, 14, mCherry-tagged]
probability of cells containing a tau inclusion (tau inclusions [2]): reduces tau inclusion | tau-negative aggregates (aggregates formed absent the presence of tau) (tau inclusions [3]): without forming tau-negative aggregates

SR Kinase (SRSRS) (ARSRSRSSSSSSSSSSSSSSSSSSSSSSSSSSSSSSSSSSSSSSSSSSSSSA) [#10, 13, mCherry-tagged]
probability of cells containing a tau inclusion (tau inclusions [2]): reducing tau inclusions, relatively rapidly | tau-negative aggregates (aggregates formed absent the presence of tau) (tau inclusions [3]): tau-negative aggregates were noted

B1: Human SRRM2 Isoform 1 Fragment 26 (F26) WT (peptide)
chain: SSSSSSGSSSSDSEGSSLPVQPEVALKRVPSPTPAPKEAVREGRPPEPTPAKRKRRSSSSSSSSSSSSSSSSSSSSSSSS
notes: 5, mCherry-tagged
probability of cells containing a tau inclusion (tau inclusions [2]): reduce the probability of tau inclusions to zero
